Source: patent US12435092B2, “Substituted imidazo[1,2-A]quinazolines as inhibitors of PARG” (858 Therapeutics, Inc., priority 2022, dated 2025)
pIC50: −log10 of the molar value.

Target: T1, cellular PARG (Homo sapiens, UniProt Q86W56)
T1 construct: endogenous in cells; host or cells: HeLa
Experiment: Nuclear PAR accumulation assay (immunofluorescence high-content imaging)
Format: cell-based
Conditions: HeLa cells, 1 hour compound treatment then MMS 50 μg/mL for an additional hour
Description: Compound IC50 values for inhibition of cellular PARG were determined using an immunofluorescence high-content imaging assay for nuclear PAR accumulation. HeLa cells were plated at 15,000 cells/well in a 96-well plate the day before compound treatment and then treated with varying concentrations of test compound and incubated for 1 hour at 37° C.+5% CO2. Following test compound treatment, methylmethane sulfonate (MMS) was added to a final concentration of 50 μg/mL and the cells were incubated for an additional hour. Following treatment, the cells were fixed with ice cold 95% methanol and the plates sealed and placed at −20° C. for 15 minutes. The cells were then washed once with phosphate buffered saline (PBS) and permeabilized with 0.1% Triton-X 100 for 20 minutes at room temperature. The cells were again washed once with PBS and incubated with an anti-poly-ADP ribose (PAR) monoclonal antibody (Millipore Part #AM80 clone 10H) diluted 1:1,000 in 5% fetal bovine serum +0.1% Tween-20+PBS overnight at 4° C. The cells were then washed three times with PBS before incubation with a fluorescently conjugated goat anti-mouse antibody (Invitrogen A32723) diluted 1:500 in 5% FBS+0.1% Tween-20+PBS for 1 hour at room temperature. The cells were again washed three times with PBS and the nuclei labeled by incubating with 1 μg/mL DAPI (4′,6-diamidino-2-phenylindole). Nuclear PAR accumulation was evaluated using high-content fluorescence microscopy. Four fields for each well were acquired at 20× magnification resulting in at least 1,000 cells analyzed per well. Using high-content software (CellReporterXpress) the nuclei were detected and segmented using the DAPI channel and the fluorescence intensity of the PAR-Alexa 488 channel was quantified within the nuclei regions. Both the average intensity per nucleus and percent PAR positive cells were quantified. Percent PAR positive cells were identified by having greater anti-PAR labeling above the threshold set with vehicle DMSO treated control cells. Percent inhibition of PARG by test compounds was calculated by normalizing the data to the 0.1% DMSO and reference compound control values, which represent 0% and 100% inhibition of enzymatic activity, respectively. Concentration-response-curves and IC50 values were generated using four parameter logistic curve fit software.

T1 sequence (Q86W56 whole entry): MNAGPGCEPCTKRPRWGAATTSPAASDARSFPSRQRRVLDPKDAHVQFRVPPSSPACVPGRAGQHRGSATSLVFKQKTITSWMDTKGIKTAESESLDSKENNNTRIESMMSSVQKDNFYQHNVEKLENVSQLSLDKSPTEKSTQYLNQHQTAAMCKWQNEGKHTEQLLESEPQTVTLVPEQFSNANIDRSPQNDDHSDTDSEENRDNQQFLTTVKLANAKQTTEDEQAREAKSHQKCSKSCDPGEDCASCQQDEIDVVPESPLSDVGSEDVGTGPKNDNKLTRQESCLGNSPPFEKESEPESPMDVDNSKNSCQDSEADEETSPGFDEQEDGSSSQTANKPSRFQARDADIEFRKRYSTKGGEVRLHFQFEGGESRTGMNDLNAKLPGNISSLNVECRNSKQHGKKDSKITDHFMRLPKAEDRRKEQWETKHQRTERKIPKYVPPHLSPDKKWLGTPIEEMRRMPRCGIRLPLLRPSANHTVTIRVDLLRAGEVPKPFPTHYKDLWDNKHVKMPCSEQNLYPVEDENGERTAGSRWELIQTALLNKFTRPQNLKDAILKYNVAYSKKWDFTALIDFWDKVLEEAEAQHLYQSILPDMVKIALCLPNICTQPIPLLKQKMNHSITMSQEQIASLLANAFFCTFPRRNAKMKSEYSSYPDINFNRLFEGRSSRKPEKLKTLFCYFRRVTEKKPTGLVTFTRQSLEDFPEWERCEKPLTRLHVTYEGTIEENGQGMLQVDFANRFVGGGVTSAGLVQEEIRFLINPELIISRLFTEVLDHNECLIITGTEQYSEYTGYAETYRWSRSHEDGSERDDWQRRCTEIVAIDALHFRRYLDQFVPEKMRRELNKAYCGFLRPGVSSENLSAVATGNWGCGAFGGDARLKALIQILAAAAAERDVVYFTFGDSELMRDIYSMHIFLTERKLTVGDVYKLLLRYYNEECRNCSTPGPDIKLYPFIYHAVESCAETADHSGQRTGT

Structure (SMILES) | pIC50
C[C@@H]1CN=C2N(CC3CC(=O)N(C)C3)C(=O)c3cc(S(=O)(=O)NC4(C)CC4)ccc3N21 (single isomer, unassigned) [Example 123] | 5.00 to 6.00
CC(c1cnn(C)c1)N1C(=O)c2cc(S(=O)(=O)NC3(C)CC3)ccc2N2C1=NC[C@H]2C (single isomer, unassigned) [Example 125] | 5.00 to 6.00
CC(c1cnn(C)c1)N1C(=O)c2cc(S(=O)(=O)NC3(C)CC3)ccc2N2C1=NC[C@H]2C (single isomer, unassigned) [Example 126] | 5.00 to 6.00
C[C@@H]1CN=C2N(Cc3cnn(CCO)c3)C(=O)c3cc(S(=O)(=O)NC4(C)CC4)ccc3N21 [Example 1, (R)-4-((1-(2-hydroxyethyl)-1H-pyrazol-4-yl)methyl)-1-methyl-N-(1-methylcyclopropyl)-5-oxo-1,2,4,5-tetrahydroimidazo[1,2-a]quinazoline-7-sulfonamide] | 6.00 to 7.00
C[C@@H]1CN=C2N(Cc3cnn(C)c3)C(=O)c3cc(S(=O)(=O)NC4(C#N)CC4)ccc3N21 [Example 2, (R)—N-(1-cyanocyclopropyl)-1-methyl-4-((1-methyl-1H-pyrazol-4-yl)methyl)-5-oxo-1,2,4,5-tetrahydroimidazo[1,2-a]quinazoline-7-sulfonamide] | 6.00 to 7.00
C[C@@H]1CN=C2N(CC3CC3)C(=O)c3cc(S(=O)(=O)NC4(C)CC4)ccc3N21 [Example 3, (R)-4-(cyclopropylmethyl)-1-methyl-N-(1-methylcyclopropyl)-5-oxo-1,2,4,5-tetrahydroimidazo[1,2-a]quinazoline-7-sulfonamide] | 6.00 to 7.00
C[C@@H]1CN=C2N(Cc3cccnc3)C(=O)c3cc(S(=O)(=O)NC4(C)CC4)ccc3N21 [Example 4, (R)-1-methyl-N-(1-methylcyclopropyl)-5-oxo-4-(pyridin-3-ylmethyl)-1,2,4,5-tetrahydroimidazo[1,2-a]quinazoline-7-sulfonamide] | 6.00 to 7.00
Cc1cc(CN2C(=O)c3cc(S(=O)(=O)NC4(C)CC4)ccc3N3C2=NC[C@H]3C)n[nH]1 [Example 5, (R)-1-methyl-4-((5-methyl-1H-pyrazol-3-yl)methyl)-N-(1-methylcyclopropyl)-5-oxo-1,2,4,5-tetrahydroimidazo[1,2-a]quinazoline-7-sulfonamide] | 6.00 to 7.00
C[C@@H]1CN=C2N(Cc3cn[nH]c3)C(=O)c3cc(S(=O)(=O)NC4(C)CC4)ccc3N21 [Example 6, (R)-4-((1H-pyrazol-4-yl)methyl)-1-methyl-N-(1-methylcyclopropyl)-5-oxo-1,2,4,5-tetrahydroimidazo[1,2-a]quinazoline-7-sulfonamide] | 6.00 to 7.00
Cc1noc(C)c1CN1C(=O)c2cc(S(=O)(=O)NC3(C)CC3)ccc2N2C1=NC[C@H]2C [Example 8, (R)-4-((3,5-dimethylisoxazol-4-yl)methyl)-1-methyl-N-(1-methylcyclopropyl)-5-oxo-1,2,4,5-tetrahydroimidazo[1,2-a]quinazoline-7-sulfonamide] | ≥ 7.00
C#C[C@H]1CN=C2N(Cc3cc(C)no3)C(=O)c3cc(S(=O)(=O)NC4(C)CC4)ccc3N21 [Example 9, (S)-1-ethynyl-N-(1-methylcyclopropyl)-4-((3-methylisoxazol-5-yl)methyl)-5-oxo-1,2,4,5-tetrahydroimidazo[1,2-a]quinazoline-7-sulfonamide] | 6.00 to 7.00
C#C[C@@H]1CN=C2N(Cc3cc(C)no3)C(=O)c3cc(S(=O)(=O)NC4(C)CC4)ccc3N21 [Example 10, (R)-1-ethynyl-N-(1-methylcyclopropyl)-4-((3-methylisoxazol-5-yl)methyl)-5-oxo-1,2,4,5-tetrahydroimidazo[1,2-a]quinazoline-7-sulfonamide] | ≥ 7.00
Cc1cc(CN2C(=O)c3cc(S(=O)(=O)NC4(C)CC4)ccc3N3C2=NC[C@@H]3C(C)C)on1 [Example 11, (S)-1-isopropyl-N-(1-methylcyclopropyl)-4-((3-methylisoxazol-5-yl)methyl)-5-oxo-1,2,4,5-tetrahydroimidazo[1,2-a]quinazoline-7-sulfonamide] | < 5.00
Cc1cc(CN2C(=O)c3cc(S(=O)(=O)NC4(C)CC4)ccc3N3C2=NC[C@H]3C(C)C)on1 [Example 12, (R)-1-isopropyl-N-(1-methylcyclopropyl)-4-((3-methylisoxazol-5-yl)methyl)-5-oxo-1,2,4,5-tetrahydroimidazo[1,2-a]quinazoline-7-sulfonamide] | 6.00 to 7.00
CC[C@H]1CN=C2N(Cc3c(C)noc3C)C(=O)c3cc(S(=O)(=O)NC4(C)CC4)ccc3N21 [Example 13, (S)-4-((3,5-dimethylisoxazol-4-yl)methyl)-1-ethyl-N-(1-methylcyclopropyl)-5-oxo-1,2,4,5-tetrahydroimidazo[1,2-a]quinazoline-7-sulfonamide] | 5.00 to 6.00
CC[C@@H]1CN=C2N(Cc3c(C)noc3C)C(=O)c3cc(S(=O)(=O)NC4(C)CC4)ccc3N21 [Example 14, (R)-4-((3,5-dimethylisoxazol-4-yl)methyl)-1-ethyl-N-(1-methylcyclopropyl)-5-oxo-1,2,4,5-tetrahydroimidazo[1,2-a]quinazoline-7-sulfonamide] | ≥ 7.00
C#C[C@H]1CN=C2N(Cc3cnc(C)s3)C(=O)c3cc(S(=O)(=O)NC4(C)CC4)ccc3N21 [Example 15, (S)-1-ethynyl-N-(1-methylcyclopropyl)-4-((2-methylthiazol-5-yl)methyl)-5-oxo-1,2,4,5-tetrahydroimidazo[1,2-a]quinazoline-7-sulfonamide] | 6.00 to 7.00
C#C[C@@H]1CN=C2N(Cc3cnc(C)s3)C(=O)c3cc(S(=O)(=O)NC4(C)CC4)ccc3N21 [Example 16, (R)-1-ethynyl-N-(1-methylcyclopropyl)-4-((2-methylthiazol-5-yl)methyl)-5-oxo-1,2,4,5-tetrahydroimidazo[1,2-a]quinazoline-7-sulfonamide] | ≥ 7.00
Cc1ncc(CN2C(=O)c3cc(S(=O)(=O)NC4(C)CC4)ccc3N3C2=NC[C@@H]3C2CC2)s1 [Example 17, (S)-1-cyclopropyl-N-(1-methylcyclopropyl)-4-((2-methylthiazol-5-yl)methyl)-5-oxo-1,2,4,5-tetrahydroimidazo[1,2-a]quinazoline-7-sulfonamide] | 6.00 to 7.00
Cc1ncc(CN2C(=O)c3cc(S(=O)(=O)NC4(C)CC4)ccc3N3C2=NC[C@H]3C2CC2)s1 [Example 18, (R)-1-cyclopropyl-N-(1-methylcyclopropyl)-4-((2-methylthiazol-5-yl)methyl)-5-oxo-1,2,4,5-tetrahydroimidazo[1,2-a]quinazoline-7-sulfonamide] | ≥ 7.00
Cc1ncc(CN2C(=O)c3cc(S(=O)(=O)NC4(C)CC4)ccc3N3C2=NC[C@@H]3C(C)C)s1 [Example 19, (S)-1-isopropyl-N-(1-methylcyclopropyl)-4-((2-methylthiazol-5-yl)methyl)-5-oxo-1,2,4,5-tetrahydroimidazo[1,2-a]quinazoline-7-sulfonamide] | < 5.00
Cc1ncc(CN2C(=O)c3cc(S(=O)(=O)NC4(C)CC4)ccc3N3C2=NC[C@H]3C(C)C)s1 [Example 20, (R)-1-isopropyl-N-(1-methylcyclopropyl)-4-((2-methylthiazol-5-yl)methyl)-5-oxo-1,2,4,5-tetrahydroimidazo[1,2-a]quinazoline-7-sulfonamide] | ≥ 7.00
Cc1cc(CN2C(=O)c3cc(S(=O)(=O)NC4(C)CC4)ccc3N3C2=NC[C@@H]3C2CC2)on1 [Example 21, (S)-1-cyclopropyl-N-(1-methylcyclopropyl)-4-((3-methylisoxazol-5-yl)methyl)-5-oxo-1,2,4,5-tetrahydroimidazo[1,2-a]quinazoline-7-sulfonamide] | 6.00 to 7.00
Cc1cc(CN2C(=O)c3cc(S(=O)(=O)NC4(C)CC4)ccc3N3C2=NC[C@H]3C2CC2)on1 [Example 22, (R)-1-cyclopropyl-N-(1-methylcyclopropyl)-4-((3-methylisoxazol-5-yl)methyl)-5-oxo-1,2,4,5-tetrahydroimidazo[1,2-a]quinazoline-7-sulfonamide] | ≥ 7.00
CC[C@H]1CN=C2N(Cc3cc(C)no3)C(=O)c3cc(S(=O)(=O)NC4(C)CC4)ccc3N21 [Example 23, (S)-1-ethyl-N-(1-methylcyclopropyl)-4-((3-methylisoxazol-5-yl)methyl)-5-oxo-1,2,4,5-tetrahydroimidazo[1,2-a]quinazoline-7-sulfonamide] | 5.00 to 6.00
CC[C@@H]1CN=C2N(Cc3cc(C)no3)C(=O)c3cc(S(=O)(=O)NC4(C)CC4)ccc3N21 [Example 24, (R)-1-ethyl-N-(1-methylcyclopropyl)-4-((3-methylisoxazol-5-yl)methyl)-5-oxo-1,2,4,5-tetrahydroimidazo[1,2-a]quinazoline-7-sulfonamide] | ≥ 7.00
CCN1C(=O)c2cc(S(=O)(=O)NC3(C)CC3)ccc2N2C1=NC[C@@H]2C1CC1 [Example 25, (S)-1-cyclopropyl-4-ethyl-N-(1-methylcyclopropyl)-5-oxo-1,2,4,5-tetrahydroimidazo[1,2-a]quinazoline-7-sulfonamide] | < 5.00
